The source made the active and inactive calls.
Key:
[1] = Kinetic solubility of the compound; assay type: physicochemical; settings: read-out: Kinetic_solubility
CA46 = test: Cytotoxicity against human CA46 cells measured after 3 days; assay type: functional, cell-based; settings: CA46, 72 h
[2] = Cytotoxicity against human HS-Sultan cells measured after 3 days; assay type: functional, cell-based; settings: 72 h
JJN-3 = test: Cytotoxicity against human JJN-3 cells measured after 3 days; assay type: functional, cell-based; settings: JJN-3, 72 h
[3] = Cytotoxicity against human KMS-26 cells measured after 3 days; assay type: functional, cell-based; settings: KMS-26, 72 h
MOLM-13 = test: Cytotoxicity against human MOLM-13 cells measured after 3 days; assay type: functional, cell-based; settings: MOLM-13, 72 h
[4] = Cytotoxicity against human UKE-1 cells measured after 3 days; assay type: functional, cell-based; settings: UKE1, 72 h
[5] = Cytotoxicity against human JHH7 cells measured after 3 days; assay type: functional, cell-based; settings: JHH7, 72 h
[6] = Cytotoxicity against human Li-7 cells measured after 3 days; assay type: functional, cell-based; settings: Li-7, 72 h
PLC-PRF-5 = test: Cytotoxicity against human PLC-PRF-5 cells measured after 3 days; assay type: functional, cell-based; settings: PLC-PRF-5, 72 h
SNU-182 = test: Cytotoxicity against human SNU-182 cells measured after 3 days; assay type: functional, cell-based; settings: SNU-182, 72 h
NCI-H2444 = test: Cytotoxicity against human NCI-H2444 cells measured after 3 days; assay type: functional, cell-based; settings: NCI-H2444, 72 h
[7] = Cytotoxicity against human MOR cells measured after 3 days; assay type: functional, cell-based; settings: 72 h
EJM = test: Cytotoxicity against human EJM cells measured after 3 days; assay type: functional, cell-based; settings: 72 h
ML-2 = test: Cytotoxicity against human ML-2 cells measured after 3 days; assay type: functional, cell-based; settings: ML-2, 72 h
[8] = Cytotoxicity against human Ri-1 cells measured after 3 days; assay type: functional, cell-based; settings: Ri-1, 72 h
SU-DHL-16 = test: Cytotoxicity against human SU-DHL-16 cells measured after 3 days; assay type: functional, cell-based; settings: SU-DHL-16, 72 h
SK-MES-1 = test: Cytotoxicity against human SK-MES-1 cells measured after 3 days; assay type: functional, cell-based; settings: SK-MES-1, 72 h
EFM-19 = test: Cytotoxicity against human EFM-19 cells measured after 3 days; assay type: functional, cell-based; settings: EFM-19, 72 h
HCC1954 = test: Cytotoxicity against human HCC1954 cells measured after 3 days; assay type: functional, cell-based; settings: HCC1954, 72 h
SUM-159-PT = test: Cytotoxicity against human SUM159PT cells measured after 3 days; assay type: functional, cell-based; settings: 72 h
[9] = Cytotoxicity against human ATRFLOX cells measured after 3 days; assay type: functional, cell-based; settings: 72 h
RMG-I = test: Cytotoxicity against human RMG-I cells measured after 3 days; assay type: functional, cell-based; settings: 72 h
[10] = Cytotoxicity against human PMF-ko14 cells measured after 3 days; assay type: functional, cell-based; settings: PMF-ko14, 72 h
[11] = Cytotoxicity against human COLO-704 cells measured after 3 days; assay type: functional, cell-based; settings: COLO 704, 72 h
[12] = Cytotoxicity against human EFM-192A cells measured after 8 days; assay type: functional, cell-based; settings: 192 h
[13] = Cytotoxicity against human EFM-192C cells measured after 8 days; assay type: functional, cell-based; settings: 192 h
EKVX = test: Cytotoxicity against human EKVX cells after 8 days; assay type: functional, cell-based; settings: 192 h
PANC-1 = test: Antiproliferative activity against human PANC-1 cells assessed as reduction in colony formation up to 20 uM supplemented with fresh medium containing compound every 3 days for 9 days by MTT staining based clonogenic assay; assay type: functional, cell-based; settings: time 9.0 day
BXPC-3 = test: Antiproliferative activity against human BxPC-3 cells assessed as reduction in colony formation up to 20 uM supplemented with fresh medium containing compound every 3 days for 9 days by MTT staining based clonogenic assay; assay type: functional, cell-based; settings: time 9.0 day
HPAC = test: Antiproliferative activity against HPAC assessed as reduction in colony formation upto 20 uM supplemented with fresh medium containing compound every 3 days for 9 days by MTT staining based clonogenic assay; assay type: functional, cell-based; settings: Homo sapiens, time 9.0 day
A2058 = test: Antiproliferative activity against human A2058 cells assessed as reduction in colony formation upto 20 uM supplemented with fresh medium containing compound every 3 days for 9 days by MTT staining based clonogenic assay; assay type: functional, cell-based; settings: time 9.0 day
THP-1 = test: Cytotoxicity against human THP-1 cells measured after 8 days; assay type: functional, cell-based; settings: THP-1, 192 h

C/C=C/Cn1cc(-c2cc(OC)c(C(=O)N3CCOCC3)cc2OC)c2cc(C)[nH]c2c1=O
135 µM: solubility kinetic [1]
2 µM: IC50 [12] | IC50 [13] | IC50 (EKVX)
5 µM: IC50 (CA46) | IC50 [2] | IC50 (JJN-3) | IC50 [3] | IC50 (MOLM-13) | IC50 [4] | IC50 [5] | IC50 [6] | IC50 (PLC-PRF-5) | IC50 (SNU-182) | IC50 (NCI-H2444) | IC50 [7] | IC50 (EJM) | IC50 (ML-2) | IC50 [8] | IC50 (SU-DHL-16) | IC50 (SK-MES-1) | IC50 (EFM-19) | IC50 (HCC1954) | IC50 (SUM-159-PT) | IC50 [9] | IC50 (RMG-I) | IC50 [10] | IC50 [11]

C/C=C/Cn1cc(-c2ccc(C(C)(C)O)cc2OC)c2cc[nH]c2c1=O
16.2 µM: IC50 (THP-1)
inactive: Activity (PANC-1) | Activity (BXPC-3) | Activity (HPAC) | Activity (A2058)
